Reference: ChEMBL document CHEMBL1153601, “Rapid identification of improved protein ligands using peptoid microarrays” (Bioorg Med Chem Lett, 2009)
The source made the active and inactive calls. No cut-off for these calls is given here. Where a SMILES comes first, the peptide text is derived from it. [ ]: non-standard residue; d: D form. Gly(N-piperonyl) = O=C(O)CNCc1ccc2c(c1)OCO2; Gly(N-propargyl) = C#CCNCC(=O)O; NFurfurylGly = O=C(O)CNCc1ccco1; NAllylGly = C=CCNCC(=O)O; Nleu = CC(C)CNCC(=O)O; Nlys = NCCCCNCC(=O)O

Columns and labels:
CREB-binding protein [1] = target: T1, CREB-binding protein (Homo sapiens, UniProt Q92793); experiment: Binding affinity to histidine tagged KIX domain of CREB-binding protein by fluorescence polarization assay
Target sequence in this assay (Q92793 whole entry, the tested form may be a part): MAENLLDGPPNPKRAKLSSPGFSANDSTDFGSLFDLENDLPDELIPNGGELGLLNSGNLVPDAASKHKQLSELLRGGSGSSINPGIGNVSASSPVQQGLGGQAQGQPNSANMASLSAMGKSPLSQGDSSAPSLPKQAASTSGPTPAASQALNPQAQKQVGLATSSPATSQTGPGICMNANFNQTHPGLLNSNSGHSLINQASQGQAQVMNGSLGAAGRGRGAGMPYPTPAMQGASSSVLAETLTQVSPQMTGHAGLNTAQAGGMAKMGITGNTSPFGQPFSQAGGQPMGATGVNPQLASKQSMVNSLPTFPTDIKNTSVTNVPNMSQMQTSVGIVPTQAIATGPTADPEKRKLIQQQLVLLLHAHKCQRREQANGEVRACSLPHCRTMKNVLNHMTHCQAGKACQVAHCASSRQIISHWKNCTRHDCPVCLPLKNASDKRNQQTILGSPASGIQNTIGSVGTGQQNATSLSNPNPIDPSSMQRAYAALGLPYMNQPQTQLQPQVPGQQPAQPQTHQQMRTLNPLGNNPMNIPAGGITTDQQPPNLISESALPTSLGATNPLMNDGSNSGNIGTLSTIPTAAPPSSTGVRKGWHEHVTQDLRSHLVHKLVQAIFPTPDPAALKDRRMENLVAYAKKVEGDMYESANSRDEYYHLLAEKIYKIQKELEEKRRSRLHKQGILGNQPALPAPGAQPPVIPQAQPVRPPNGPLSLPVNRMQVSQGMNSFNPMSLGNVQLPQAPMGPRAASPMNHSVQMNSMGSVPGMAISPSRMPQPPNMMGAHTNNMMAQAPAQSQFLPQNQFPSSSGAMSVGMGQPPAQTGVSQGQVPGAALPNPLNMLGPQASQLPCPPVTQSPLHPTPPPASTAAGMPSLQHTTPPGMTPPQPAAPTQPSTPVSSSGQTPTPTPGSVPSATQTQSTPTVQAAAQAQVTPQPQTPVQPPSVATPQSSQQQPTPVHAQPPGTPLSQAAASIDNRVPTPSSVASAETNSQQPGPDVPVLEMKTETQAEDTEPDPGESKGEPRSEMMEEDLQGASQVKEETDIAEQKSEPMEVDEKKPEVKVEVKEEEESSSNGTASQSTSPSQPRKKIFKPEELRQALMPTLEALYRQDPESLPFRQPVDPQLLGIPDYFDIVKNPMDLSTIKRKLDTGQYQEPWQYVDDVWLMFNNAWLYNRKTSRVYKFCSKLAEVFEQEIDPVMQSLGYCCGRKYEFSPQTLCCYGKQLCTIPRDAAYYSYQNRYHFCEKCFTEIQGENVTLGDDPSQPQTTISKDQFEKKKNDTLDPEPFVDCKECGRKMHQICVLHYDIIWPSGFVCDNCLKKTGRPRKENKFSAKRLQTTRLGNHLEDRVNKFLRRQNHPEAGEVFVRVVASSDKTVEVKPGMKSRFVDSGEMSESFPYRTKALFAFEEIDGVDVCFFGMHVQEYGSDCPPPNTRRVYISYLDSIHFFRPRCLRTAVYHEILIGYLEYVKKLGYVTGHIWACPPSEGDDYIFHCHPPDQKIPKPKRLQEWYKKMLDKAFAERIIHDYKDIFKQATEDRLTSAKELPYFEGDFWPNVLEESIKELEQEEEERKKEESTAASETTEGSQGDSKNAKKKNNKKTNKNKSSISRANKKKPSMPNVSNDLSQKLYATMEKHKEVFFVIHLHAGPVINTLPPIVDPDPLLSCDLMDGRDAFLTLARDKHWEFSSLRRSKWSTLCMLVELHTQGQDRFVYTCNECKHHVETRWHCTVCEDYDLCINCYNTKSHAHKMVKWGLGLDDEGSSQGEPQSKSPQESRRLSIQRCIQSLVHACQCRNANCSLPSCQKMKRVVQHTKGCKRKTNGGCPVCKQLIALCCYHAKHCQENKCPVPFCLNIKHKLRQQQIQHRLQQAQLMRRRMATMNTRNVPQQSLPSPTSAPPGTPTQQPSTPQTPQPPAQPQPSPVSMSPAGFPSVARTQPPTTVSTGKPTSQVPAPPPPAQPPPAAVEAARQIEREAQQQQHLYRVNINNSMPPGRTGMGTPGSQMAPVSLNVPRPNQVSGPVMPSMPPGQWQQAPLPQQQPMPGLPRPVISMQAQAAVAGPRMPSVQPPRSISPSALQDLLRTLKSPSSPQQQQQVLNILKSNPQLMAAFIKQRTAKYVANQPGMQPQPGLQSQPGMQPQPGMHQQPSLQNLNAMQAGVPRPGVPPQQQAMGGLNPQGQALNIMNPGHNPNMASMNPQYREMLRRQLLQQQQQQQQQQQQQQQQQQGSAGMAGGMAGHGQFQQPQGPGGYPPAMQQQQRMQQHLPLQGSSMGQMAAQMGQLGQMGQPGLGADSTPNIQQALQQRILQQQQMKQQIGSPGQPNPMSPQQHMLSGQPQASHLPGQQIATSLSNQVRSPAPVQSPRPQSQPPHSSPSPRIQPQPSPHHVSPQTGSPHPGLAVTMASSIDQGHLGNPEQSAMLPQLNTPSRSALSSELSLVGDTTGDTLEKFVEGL

CREB-binding protein [2] = target: T1, CREB-binding protein; experiment: Binding affinity to histidine tagged KIX domain of CREB-binding protein expressed in Escherichia coli by affinity purification assay
Target sequence in this assay (Q92793 2-2442 limits assumed): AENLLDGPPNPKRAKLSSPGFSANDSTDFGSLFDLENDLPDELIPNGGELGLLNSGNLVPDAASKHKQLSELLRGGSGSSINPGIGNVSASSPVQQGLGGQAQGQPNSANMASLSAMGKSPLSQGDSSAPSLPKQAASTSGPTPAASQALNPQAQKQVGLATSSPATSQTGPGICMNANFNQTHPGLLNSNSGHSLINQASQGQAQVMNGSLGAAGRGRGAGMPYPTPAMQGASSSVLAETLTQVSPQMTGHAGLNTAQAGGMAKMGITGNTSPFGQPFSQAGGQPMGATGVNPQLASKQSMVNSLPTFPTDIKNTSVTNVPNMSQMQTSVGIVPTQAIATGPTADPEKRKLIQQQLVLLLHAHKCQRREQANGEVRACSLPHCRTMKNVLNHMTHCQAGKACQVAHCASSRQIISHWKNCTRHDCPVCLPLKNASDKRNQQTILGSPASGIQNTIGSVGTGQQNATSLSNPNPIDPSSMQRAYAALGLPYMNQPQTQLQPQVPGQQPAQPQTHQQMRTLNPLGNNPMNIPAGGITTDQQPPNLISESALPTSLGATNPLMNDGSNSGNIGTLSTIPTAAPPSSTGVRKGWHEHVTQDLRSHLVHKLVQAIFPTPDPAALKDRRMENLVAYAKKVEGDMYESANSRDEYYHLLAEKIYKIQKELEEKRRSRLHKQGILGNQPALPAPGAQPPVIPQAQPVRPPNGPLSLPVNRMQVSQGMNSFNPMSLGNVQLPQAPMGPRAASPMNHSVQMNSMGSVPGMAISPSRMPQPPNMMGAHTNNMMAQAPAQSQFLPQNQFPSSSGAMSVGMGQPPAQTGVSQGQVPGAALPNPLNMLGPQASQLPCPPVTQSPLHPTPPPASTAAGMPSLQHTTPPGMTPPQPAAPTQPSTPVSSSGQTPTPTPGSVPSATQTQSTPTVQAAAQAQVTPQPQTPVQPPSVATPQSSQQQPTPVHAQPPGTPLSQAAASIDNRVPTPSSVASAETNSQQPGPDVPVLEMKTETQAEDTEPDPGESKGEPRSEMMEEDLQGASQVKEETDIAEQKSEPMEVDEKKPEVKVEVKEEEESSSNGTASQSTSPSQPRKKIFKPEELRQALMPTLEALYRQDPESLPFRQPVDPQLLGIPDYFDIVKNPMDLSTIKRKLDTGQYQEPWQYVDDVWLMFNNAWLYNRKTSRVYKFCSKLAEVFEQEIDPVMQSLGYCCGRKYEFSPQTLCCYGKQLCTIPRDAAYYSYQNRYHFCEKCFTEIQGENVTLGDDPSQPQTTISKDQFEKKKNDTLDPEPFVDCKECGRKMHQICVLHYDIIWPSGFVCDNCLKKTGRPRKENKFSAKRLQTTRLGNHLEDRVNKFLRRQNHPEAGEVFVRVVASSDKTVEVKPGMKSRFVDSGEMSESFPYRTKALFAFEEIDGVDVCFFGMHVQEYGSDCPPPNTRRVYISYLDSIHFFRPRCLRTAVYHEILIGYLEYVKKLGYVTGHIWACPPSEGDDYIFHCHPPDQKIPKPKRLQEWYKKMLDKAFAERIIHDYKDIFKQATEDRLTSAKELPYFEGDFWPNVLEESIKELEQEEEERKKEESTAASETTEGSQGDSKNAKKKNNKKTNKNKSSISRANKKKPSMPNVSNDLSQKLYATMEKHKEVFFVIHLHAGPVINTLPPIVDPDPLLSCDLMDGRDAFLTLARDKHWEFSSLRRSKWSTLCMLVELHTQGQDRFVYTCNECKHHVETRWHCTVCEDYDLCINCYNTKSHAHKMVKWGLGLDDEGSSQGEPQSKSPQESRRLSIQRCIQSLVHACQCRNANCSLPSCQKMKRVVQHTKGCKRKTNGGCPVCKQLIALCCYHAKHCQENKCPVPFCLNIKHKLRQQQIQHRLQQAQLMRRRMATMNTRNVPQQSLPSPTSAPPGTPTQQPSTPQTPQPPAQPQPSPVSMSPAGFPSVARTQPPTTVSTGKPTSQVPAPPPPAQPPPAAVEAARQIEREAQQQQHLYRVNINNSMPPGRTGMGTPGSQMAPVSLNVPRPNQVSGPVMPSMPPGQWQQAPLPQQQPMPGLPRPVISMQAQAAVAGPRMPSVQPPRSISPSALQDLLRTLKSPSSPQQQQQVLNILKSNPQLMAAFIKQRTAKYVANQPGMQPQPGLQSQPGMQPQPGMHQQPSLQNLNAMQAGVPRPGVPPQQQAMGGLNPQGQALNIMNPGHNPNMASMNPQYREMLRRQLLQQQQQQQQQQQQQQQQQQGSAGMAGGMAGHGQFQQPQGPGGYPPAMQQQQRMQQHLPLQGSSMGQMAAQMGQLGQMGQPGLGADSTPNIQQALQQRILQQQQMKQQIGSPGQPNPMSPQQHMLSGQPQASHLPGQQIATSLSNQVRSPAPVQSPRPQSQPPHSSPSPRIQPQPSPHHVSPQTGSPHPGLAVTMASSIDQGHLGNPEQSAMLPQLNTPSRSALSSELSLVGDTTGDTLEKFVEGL

Row | Kd (CREB-binding protein [1]) [µM] | Activity (CREB-binding protein [2]) | Compound
1 | 8.3 |  | C=CCN(CC(=O)N(CC(N)=O)CC(C)C)C(=O)CN(Cc1ccco1)C(=O)CN(Cc1ccco1)C(=O)CN(Cc1ccco1)C(=O)CN(CC(C)C)C(=O)CNCc1cn(CCCCN(CC(N)=O)C(=O)CN(Cc2ccc3c(c2)OCO3)C(=O)CN(CCCCN)C(=O)CN(Cc2ccc3c(c2)OCO3)C(=O)CN(CC(C)C)C(=O)CN(CCCCN)C(=O)CNCc2ccc3c(c2)OCO3)nn1
2 | 72.8 |  | CC(C)CN(CC(=O)N(CC(=O)N(CCCCN)CC(=O)N(CC(=O)N(CCCCn1cc(CNCC(=O)N(CC(=O)N(CCO)CC(=O)N(CC(=O)N(CC(=O)N(CCCCN)CC(=O)N(CC(N)=O)Cc2ccco2)Cc2ccco2)Cc2ccc3c(c2)OCO3)Cc2ccco2)nn1)CC(N)=O)Cc1ccc2c(c1)OCO2)Cc1ccc2c(c1)OCO2)C(=O)CN(CCCCN)C(=O)CNCc1ccc2c(c1)OCO2
3 | 195 | inactive | CC(C)CN(CC(=O)N(CCCCN)CC(=O)N(CC(N)=O)Cc1ccc2c(c1)OCO2)C(=O)CN(Cc1ccc2c(c1)OCO2)C(=O)CN(CCCCN)C(=O)CNCc1ccc2c(c1)OCO2 (H-[Gly(N-piperonyl)][Nlys][Gly(N-piperonyl)][Nleu][Nlys][Gly(N-piperonyl)]-NH2)
4 | 4.6 | Active | C#CCNCC(=O)N(CC(=O)N(CC(=O)N(CC(=O)N(CC(=O)N(CC=C)CC(=O)N(CC(N)=O)CC(C)C)Cc1ccco1)Cc1ccco1)Cc1ccco1)CC(C)C (H-[Gly(N-propargyl)][Nleu][NFurfurylGly][NFurfurylGly][NFurfurylGly][NAllylGly][Nleu]-NH2)
